According to US4533666A, “6-Phenyl-2,3-bis-(4-methoxyphenyl)-pyridine derivatives having anti-inflammatory activity” (Eli Lilly and Company, priority 1983, dated 1985):

Legend:
[1] = mouse writhing assay (acetic acid-induced); type: in vivo, mouse (Cox standard strain albino male mice); conditions: oral gavage in corn oil-acacia emulsion (5%), three hours before acetic acid (0.60 percent) i.p., five mice per group; for ED50: Mus musculus, po, 3 h
Excerpt: The analgesic activity of a number of compounds provided by this invention has been determined in the standard mouse writhing assay. Writhing, which is characterized by contraction of the abdominal musculature, extension of the hindlegs, and rotation of the trunk, was induced in Cox standard strain albino male mice. The mice, weighing 18-24 grams, were fasted overnight and given the test compound by gavage in a corn oil-acacia emulsion (5%) three hours before writhing was induced by the intraperitoneal administration of acetic acid (0.60 percent). Each treatment group consisted of five mice. The total number of writhes for the treatment group was determined during a 10-minute observation starting five minutes after acetic acid administration. […] Table I which follows presents typical test results obtained with certain of the compounds of this invention. The results in the mouse writhing assay are presented as the effective oral (p.o.) dose in mg./kg. of the tested compound required to inhibit induced writhing in the test animals by fifty percent (ED50).

[2] = Established adjuvant-induced arthritis test in rats, uninjected paw volume inflammation; type: in vivo, rat (male Lewis-Wistar rats); conditions: Days 14 through 30, AUC difference

SMILES	ED50 [1] [mg/kg]	% Inhibition of Uninjected Paw Volume Inflammation ([2]; 5 mg./kg. p.o. × 15) [%]	% Inhibition of Uninjected Paw Volume Inflammation ([2]; 10 mg./kg. p.o. × 15) [%]	% Inhibition of Uninjected Paw Volume Inflammation ([2]; 25 mg./kg. p.o. × 15) [%]	further results
COc1ccc(-c2ccc(-c3ccc(Cl)cc3)nc2-c2ccc(OC)cc2)cc1 [Example 3, 6-(4-Chlorophenyl)-2,3-bis(4-methoxyphenyl)pyridine]	0.78	30	58	–	–
COc1ccc(-c2ccc(-c3ccc(C(F)(F)F)cc3)nc2-c2ccc(OC)cc2)cc1 [Example 7, 6-(4-Trifluoromethylphenyl)-2,3-bis(4-methoxyphenyl)pyridine]	8.9	–	–	33	–
COc1ccc(-c2ccc(-c3ccccc3)nc2-c2ccc(OC)cc2)cc1 [Example 2, 6-Phenyl-2,3-bis(4-methoxyphenyl)pyridine]	2.7	–	–	–	% Inhibition of Uninjected Paw Volume Inflammation ([2]; 25 mg./kg. p.o. × 15, Average of two experiments): 40%
COc1ccc(-c2ccc(-c3ccc(Br)cc3)nc2-c2ccc(OC)cc2)cc1 [Example 4, 6-(4-Bromophenyl)-2,3-bis(4-methoxyphenyl)pyridine]	4.1	–	27	48	–
COc1ccc(-c2ccc(-c3ccc(F)cc3)nc2-c2ccc(OC)cc2)cc1 [Example 1, 6-(4-Fluorophenyl)-2,3-bis(4-methoxyphenyl)pyridine]	3.5	70	80	–	–
COc1ccc(-c2ccc(-c3ccc(F)cc3)nc2-c2ccc(OC)cc2)cc1 [Example 6, 6-(4-Fluorophenyl)-2,3-bis(4-methoxyphenyl)pyridine 4-methylbenzenesulfonate]	–	–	–	–	Mouse Writhing ED50 ([1]; 180 min, 4-methylbenzenesulfonate, 180 min): 4.2 mg./kg. p.o.; % Inhibition of Uninjected Paw Volume Inflammation ([2]; 5 mg./kg. p.o. × 15, 4-methylbenzenesulfonate): 69%; % Inhibition of Uninjected Paw Volume Inflammation ([2]; 10 mg./kg. p.o. × 15, 4-methylbenzenesulfonate): 71%
